According to patent EP2265599B1, “CRYSTAL FORM OF PHENYLAMINOPYRIMIDINE DERIVATIVE” (Natco Pharma Limited, priority 2008, dated 2009):
“Also recorded” adds a separate entry of the source.

How the values were obtained:
K562 cells = experiment: Spleenic enlargement and Crk immunocytochemistry of spleen in nude mice implanted with K562 cells; format: in vivo; settings: ip injections
Protocol: Spleen and any secondary tumors were harvested, fixed in formaldehyde and paraffin embedded as per standard protocols. Paraffin section were obtained and processed for immunocytochemistry. The rehydrated sections were treated with 0.3% H2O2 to inactivate any native peroxidases prior to immuno-probing. The sections were blocked with filter sterilized (0.22µm) 1% BSA-PBS at room temperature for 1h. Following blocking, the sections were immuno-probed with a human specific anti-Crk monoclonal primary antibody raised in rabbit against a synthetic peptide corresponding to residues in the SH2 domain, near the N-term of human CrkL protein (Abcam, Cambridge, MA, USA) in 1%BSA-PBS overnight. Secondary antibody (anti-rabbit) conjugated to HRP was used to detect the presence of primary antibody. The sections were briefly rinsed three times in PBS solution after immuno-probing with secondary antibody, and DAB HRP substrate was added per manufacture's instructions (Sigma St Louis MO USA). […] For negative controls primary antibody were eliminated. Leukemic mice spleen served as positive controls.
Mice were sacrificed after a decrease in LGI was observed and spleen harvested. […] Control mice also developed random subcutaneous tumors showing Crk expression, indicative of the presence of K562 cells.

Baf3Wt = experiment: In vivo anti-leukemic activity, blast cell count in blood smears, Baf3Wt implanted nude mice; settings: Imatinib 10mg/kg, AN019 20mg/kg, AN024 20mg/kg, oral gavage or ip from day 15; up to day 42
Description: (§1) Blood smears were obtained via the tail vein or via the femoral vein every 6th day and blast cells counted and graphically represented.
(§2) Abdominal swelling and decrease in activity was monitored daily, blood smear taken via the tail vein or the femoral vein every 6th day and H&E stained as per standard protocols. 42 days after implantation, mice were sacrificed and spleens harvested.
(§3) Nude mice were intraperitoneally implanted with Baf3 mutant cells (wt, T315I, M351T or E255K). […] Blood was drawn from the femoral vein or tail vein every 6th day and blast cell count determined and graphically represented.

Baf3E255K = experiment: In vivo anti-leukemic activity, blast cell count in blood smears, Baf3E255K implanted nude mice; settings: Imatinib 10mg/kg, AN019 20mg/kg, AN024 20mg/kg, oral gavage or ip from day 15; up to day 42
Description: as §1, §2, §3

ZR-71 cells = experiment: In vitro angiogenic assay (conditioned media on human dermal endothelial cells), ZR-71; format: cell-based
Protocol: (§4) The in vitro angiogenesis of 4910, 5310 and U87 glioma cells and MDAMB231 and ZR71 breast cancer cells in the presence of specified concentrations of compounds were determined as follows, cells (2x10^4/well) were seeded in 8-well chamber slides and were treated with various concentrations of test compounds. After a 24 h incubation period, the conditioned media was removed and added to a 4x 10^4 human dermal endothelial cell (monolayer in 8-well chamber slides) and the human dermal endothelial cells were allowed to grow for 72 h. Cells were then fixed in 3.7% formaldehyde and stained with H&E and photographed.

MDA-MB-231 cells = experiment: In vitro angiogenic assay (conditioned media on human dermal endothelial cells), MDA-MB-231; format: cell-based; settings: control condition and after radiation
Protocol: as §4

[1] = test system: Glioma xenograft cells 4910; experiment: In vitro angiogenic assay (conditioned media on human dermal endothelial cells), 4910; format: cell-based; settings: 4910 cells, with and without radiation
Protocol: as §4

5310 cells = experiment: Western blot analysis for AKT, ERK and Pi3k, 5310; format: cell-based
Protocol: (§5) Western blot analysis of 4910, 5310 and U87 glioma cells and MDAMB231 and ZR71 breast cancer cells in the presence of specified concentrations of compounds were assessed as per standard protocols. Cells were treated with AN019, AN024 or Temozolomide at the specified concentrations. 24h after treatment, cells were collected and cell lysates extracted. Equal quantities of proteins were fractionated by SDS-PAGE. The fractionated proteins were blotted on to nylon membranes and immunoprobed for AKT, ERK and Pi3k. Breast cancer cell protein isolates were additionally immunoprobed for EGFR, ErbB1, ErbB2 and ErbB3.

[2] = test system: 4910, 5310 and U87 glioma cells and MDAMB231 and ZR71 breast cancer cells; experiment: Western blot analysis for pAKT and pERK (cell line not specified); format: cell-based; settings: with and without radiation
Protocol: as §5

[3] = test system: 4910 human glioma xenograft cells; experiment: Glioma radiation study, intracranially implanted 4910 cells; format: in vivo, Nude mice
Protocol: Nude mice were intracranially implanted with 4910 human glioma xenograft cells (1x10^6 cells). Ten days after implantation mice were treated with AN019, AN024 or temozolomide with or without radiation (5Gy/week). The experiment was terminated at day 40 post implantation.

Compound: Cc1ccc(NC(=O)c2cc(C(F)(F)F)cc(C(F)(F)F)c2)cc1Nc1nccc(-c2cccnc2)n1 [AN019, (3,5-bis trifluoromethyl)-N-[4-methyl-3-(4-pyridin-3yl-pyrimidin-2ylamino)-phenyl]-benzamide]
- Crk expression in spleen (immunohistochemistry) (K562 cells; paraffin sections of spleen): basal levels of Crk expression; also recorded: only basal level expression of Crk expression comparable to negative control
- Spleenic enlargement (gross observation) (K562 cells; spleen harvested after decrease in LGI): did not show any spleenic enlargement
- blast cell count in blood smears (Baf3Wt): complete regression of leukemic blast cells
- blast cell count in blood smears (Baf3E255K): significant decrease in blast cell count
- inhibition of angiogenesis (ZR-71 cells): complete inhibition of angiogenesis
- inhibition of angiogenesis (MDA-MB-231 cells): a slight inhibition was observed in both control and radiation treatments
- inhibition of angiogenesis [1]: inhibition of angiogenesis similar to MDA-MB-231 cells with an increase in angiogenic inhibition after radiation
- AKT expression levels (5310 cells): decrease in AKT expression levels
- Levels of PI3k (5310 cells; without and after radiation): almost undetectable in AN019 treated cells without radiation but reappeared after radiation treatment
- levels of pERK [2]: reduced significantly
- intracranial tumours (size, appearance) ([3]; with radiation (5Gy/week)): tumor size was significantly reduced
- animals cured / no observable intracranial tumor ([3]; with radiation (5Gy/week), terminated at day 40): 6 of 10 animals
- intracranial tumours (size, appearance) ([3]; without radiation): showed tumours similar to AN024 treated animals
- animals cured / complete absence of intracranial tumours ([3]; without radiation, treatment from ten days after implantation, terminated at day 40): 6 of 10 animals
